Results as given in PMC11523249, “Expanding the antiprotozoal activity and the mechanism of action of n-butyl and iso-butyl ester of quinoxaline-1,4-di-N-oxide derivatives against Giardia lamblia, Trichomonas vaginalis, and Entamoeba histolytica. An in vitro and in silico approach” (Journal of Enzyme Inhibition and Medicinal Chemistry, 2024).
Read-outs that look alike come from different tables or passages of the source.

What was measured:
T. vaginalis GT3 strain = assay: In vitro susceptibility assay, T. vaginalis trophozoites; format: cell-based, Trichomonas vaginalis
Description: (§1) G. lamblia WB strain, T. vaginalis GT3 strain, and E. histolytica strain HM1-IMSS were used in all experiments, all parasitic strains were obtained from the Unidad de Investigación Médica en Enfermedades Infecciosas y Parasitarias, Hospital de Pediatría, Instituto Mexicano del Seguro Social. In vitro susceptibility assays to determine IC50 values were performed using a method previously described. For this, 4 × 10^4 G. lamblia; 6 × 10^3 E. histolytica, or 4 × 10^4 T. vaginalis trophozoites were incubated for 48 h at 37 °C with different concentrations of quinoxaline derivatives T-137 to T-170 (0.5 ng/mL to 10 μg/mL) using dimethyl sulfoxide (DMSO) (0.05%) as solvent. Metronidazole and albendazole were used as positive controls, and parasites in the medium without drugs containing DMSO (0.05%) were included as negative controls. At the end of the incubation period, trophozoites were washed and subcultured for another 48 h in a fresh medium without drugs. Then, trophozoites were counted with a haemocytometer and the IC50 was calculated by Probit analysis. Experiments were carried out in triplicate and repeated at least twice.

[1] = Cytotoxic evaluation, MTT colorimetric assay; format: cell-based; conditions: mouse, J774.2 macrophage cell line, murine macrophages J774.2, read-out: Cytotoxicity (Macrophages J774.2) (CC50)
Description: (§2) The murine macrophage cell line J774.2 was maintained in culture flasks with RPMI 1640 medium supplemented with 10% FBS, and 100 U/mL antibiotic-antifungal mixture (Gibco). Cells were incubated at 37 °C with 5% CO2 and humidity. Murine macrophage cell line J774.2 is maintained at Laboratorio de Estudios Epidemiológicos, Clínicos, Diseños Experimentales e Investigación, Facultad de Ciencias Químicas, Universidad Autónoma “Benito Juárez” de Oaxaca. Macrophages were washed and viability was assessed by the MTT colorimetric assay. In a 96-well microplate, 1 × 10^5 macrophages were added per well and a dose-response assay was performed. Compounds were evaluated using serial dilutions to determine half-maximal cytotoxic concentration (CC50) values in triplicate considering 0.2% DMSO as negative control.

G. lamblia WB strain = assay: In vitro susceptibility assay, G. lamblia trophozoites; format: cell-based, Giardia lamblia
Description: as §1

[2] = test system: E. histolytica strain HM1-IMSS; assay: In vitro susceptibility assay, E. histolytica trophozoites; format: cell-based, Entamoeba histolytica; conditions: Entamoeba histolytica, 48 h, read-out: E. histolytica (IC50 nM), trophozoites, 48 h at 37 °C, subcultured 48 h, Probit analysis
Description: as §1

recombinant GlTIM [3] = molecular target: T1, recombinant GlTIM (Giardia intestinalis, UniProt P36186); set-up: method as in PMID 25223993; conditions: cited from earlier work
T1 construct: His-tag with TEV site (pET3a-HisTEV); made in house; host or cells: Escherichia coli BL21(DE3) pLys
T1 sequence (P36186 whole entry): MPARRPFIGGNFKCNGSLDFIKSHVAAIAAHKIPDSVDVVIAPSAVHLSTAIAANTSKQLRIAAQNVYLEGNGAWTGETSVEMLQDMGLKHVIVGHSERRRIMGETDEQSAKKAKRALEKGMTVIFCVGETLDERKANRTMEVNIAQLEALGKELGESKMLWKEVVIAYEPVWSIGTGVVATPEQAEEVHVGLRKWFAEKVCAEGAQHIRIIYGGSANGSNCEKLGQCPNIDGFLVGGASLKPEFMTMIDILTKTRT

[4] = test system: murine macrophage cell line J774.2; assay: Cytotoxic evaluation, MTT colorimetric assay; format: cell-based; conditions: murine macrophages J774.2, read-out: Cytotoxicity (Macrophages J774.2) (CC50)
Description: as §2

human TIM (HsTIM) = molecular target: T2, human TIM (HsTIM) (Homo sapiens, UniProt P60174); assay: Inhibition of recombinant HsTIM enzyme activity; format: biochemical
T2 construct: His-tag with TEV site (pET3a-HisTEV); made in house; host or cells: E. coli BL21-CodonPlus (DE3)-RIL
T2 sequence (P60174 whole entry): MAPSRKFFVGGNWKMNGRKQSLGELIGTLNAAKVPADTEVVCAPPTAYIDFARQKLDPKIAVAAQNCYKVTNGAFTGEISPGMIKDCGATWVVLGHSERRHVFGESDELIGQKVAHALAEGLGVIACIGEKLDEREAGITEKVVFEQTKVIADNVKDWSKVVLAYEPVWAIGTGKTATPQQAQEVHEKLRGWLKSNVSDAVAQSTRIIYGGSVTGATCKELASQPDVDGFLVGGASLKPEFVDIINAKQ
Description: Expression of human TIM (HsTIM) was performed by using the E. coli BL21-CodonPlus (DE3)-RIL strain (Stratagene) containing the plasmid pET3a-HisTEV with the gene coding for HsTIM. Expression and purification steps were as above-mentioned for GlTIM. The enzyme concentration was spectrophotometrically determined (Spectrophotometer Cary 50, Varian Inc.) at 280 nm using the extinction coefficient ε280 = 33,460 M^−1 cm^−1.
(§3) For the inhibition assays, freshly purified recombinant GlTIM was incubated at 0.2 mg/mL for 2 h at 37 °C in the presence of 500 μM of each n-butyl and iso-butyl quinoxaline-7-carboxylate-1,4-di-N-oxide derivatives. After incubation, the samples were diluted, and 5 ng/mL were taken to measure their enzymatic activity. Enzyme activity was spectrophotometrically measured (Spectrophotometer Cary 50, Agilent Technologies, CA, USA) by following DHAP synthesis with a coupled system that followed the oxidation of NADH at 340 nm[41]. Results are expressed as the percent activity versus each compound at 500 μM, with the enzyme activity without any drug set as 100%. Additionally, GlTIM and HsTIM (separately) were incubated at 0.2 mg/mL for 2 h at 37 °C in the presence of 5, 10, 50, 150, 250, 350, and 500 μM of the T-167 derivative. Results are expressed as the percent activity versus T-167 concentration. All results represent the arithmetic mean of at least four independent experiments.

[5] = test system: G. lamblia trophozoites (WB strain); assay: Attachment and viability of G. lamblia trophozoites; format: cell-based, Giardia lamblia; conditions: 24 h of incubation at 37 °C
Description: Cytotoxicity of a drug is not the only important characteristic to cope with the pathogenesis of G. lamblia. It is known that the attachment of the trophozoites to the microvillus border of the small intestine is a crucial step for causing disease. […] T-143 and T-146 had the highest cytotoxic effect on giardia trophozoites (Figure 2(A,B), respectively). Detachment of trophozoites in cultures incubated with T-146 or T-161 was undetectable, with their impact directly through cytotoxicity (Figure 2(B)).

recombinant GlTIM [6] = molecular target: T1, recombinant GlTIM; assay: Inhibition of recombinant GlTIM enzyme activity; format: biochemical, Giardia lamblia
Description: Escherichia coli BL21(DE3) pLys bacteria containing the plasmid pET3a-HisTEV with the gene coding for GlTIM wild type were grown in LB medium supplemented with 0.1 mg/mL ampicillin and incubated at 37 °C[40]. When the cultures reached Abs600 = 0.8, they were induced to express the recombinant enzyme using 0.4 mM IPTG and incubated overnight at 30 °C with shaking at 180 rpm. After induction and growth, the bacteria were collected by centrifugation (6500 rpm, 15 min) and suspended in 40 mL of lysis buffer (pH 8.0) containing 50 mM Tris, 50 mM NaCl, 5 mM β-mercaptoethanol, and 1 mM phenylmethylsulfonyl fluoride (PMSF). The bacterial suspension was disrupted by sonication and centrifuged at 9000 rpm for 1 h, at 4 °C. Protein purification was performed via IMAC using a Profinity Ni^2+ charged resin previously equilibrated with lysis buffer. The soluble protein fraction was mixed with the equilibrated Ni^2+ charged resin and incubated at room temperature with shaking for 30 min. Then, the column was washed with the same buffer (10 column volumes) to remove proteins without the His-tag sequence. The desired proteins were eluted with lysis buffer containing 200 mM imidazole and adjusted to pH 8.0. The purified protein was concentrated using Amicon ultrafiltration units. The purity of the enzymes was analysed via sodium dodecyl sulfate-polyacrylamide gel electrophoresis (16% SDS–PAGE gel) and stained with colloidal Coomassie Brilliant Blue. The enzyme concentration was spectrophotometrically determined (Spectrophotometer Cary 50, Varian Inc.) at 280 nm using the extinction coefficient ε280 = 26,600 M^−1 cm^−1.
as §3

[7] = Trichomonas vaginalis, GT3, 48 h, read-out: T. vaginalis (IC50 nM), trophozoites, 48 h at 37 °C, subcultured 48 h, Probit analysis
[8] = Giardia duodenalis, 48 h, read-out: G. lamblia (IC50 nM), trophozoites, 48 h at 37 °C, subcultured 48 h, Probit analysis

CC(=O)c1c(-c2ccccc2)[n+]([O-])c2ccc(C(=O)OCC(C)C)cc2[n+]1[O-] [Compound T-168]
IC50 (T. vaginalis GT3 strain; [7]): 150 ± 14.5 nM
CC50 [1]: 28500 ± 1690 nM
IC50 (G. lamblia WB strain; [8]): 39.5 ± 2.63 nM
IC50 [2]: 50 ± 2.63 nM

COc1ccc2[nH]c([S+]([O-])Cc3ncc(C)c(OC)c3C)nc2c1 (centres unmarked) [omeprazole]
Concentration attaining 70% inhibition of GlTIM (recombinant GlTIM [3]): about 300 µM
Concentration wholly inhibiting GlTIM activity (recombinant GlTIM [3]): 750 µM

CC(=O)c1c(Nc2ccc(C)cc2C)[n+]([O-])c2ccc(C(=O)OCC(C)C)cc2[n+]1[O-] [Compound T-170]
IC50 (T. vaginalis GT3 strain; [7]): 130 ± 8.27 nM
CC50 [1]: > 200000 nM
IC50 (G. lamblia WB strain; [8]): 109 ± 3.55 nM
IC50 [2]: 33.1 ± 2.36 nM

CC(=O)c1c(C(F)(F)F)[n+]([O-])c2ccc(C(=O)OCC(C)C)cc2[n+]1[O-] [Compound T-167]
IC50 (T. vaginalis GT3 strain; [7]): < 90 nM
IC50 (T. vaginalis GT3 strain; read-out: T. vaginalis (IC50 nM), trophozoites, 48 h at 37 °C, subcultured 48 h, Probit analysis): 90 ± 6.72 nM
CC50 [4]: 25400 ± 81.5 nM
Effect on HsTIM enzyme activity (human TIM (HsTIM); 10 µM T-167, 2 h at 37 °C): unaffected
HsTIM retained activity (human TIM (HsTIM); 500 µM T-167, when GlTIM activity is completely depleted): more than 75%
HsTIM loss of activity (human TIM (HsTIM); 50 to 350 µM T-167): no more than 10%
Selectivity index, G. lamblia versus macrophages (G. lamblia WB strain; CC50 J774.2 / IC50 G. lamblia): 994 fold
IC50 (G. lamblia WB strain; [8]): < 30 nM
IC50 (G. lamblia WB strain; read-out: G. lamblia (IC50 nM), trophozoites, 48 h at 37 °C, subcultured 48 h, Probit analysis): 25.5 ± 1.34 nM
IC50 [2]: 64.5 ± 5.38 nM
Concentration at which detachment and cytotoxicity took impact [5]: 25 µM
inhibition at 10 µM (recombinant GlTIM [6]; 10 µM T-167, 2 h at 37 °C): > 20%
GlTIM inhibition (recombinant GlTIM [6]; 500 µM compound, 2 h at 37 °C): wholly inhibited
inhibition at 500 µM (recombinant GlTIM [6]; 500 µM compound, 2 h at 37 °C): 99.7%
GlTIM residual activity (recombinant GlTIM [6]; 50 to 350 µM T-167): ~25%
Decrease of GlTIM enzyme activity (recombinant GlTIM [6]; <10 to 50 µM T-167): above 70%
